Data as given in patent US20110230430A1, “SAPONIN EXTRACT FROM SAPONARIA SPP. AND USES THEREOF” (NATIONAL RESEARCH COUNCIL OF CANADA, priority 2008, published 2011).

How the values were obtained:
MDA-MB-231 cells = assay: Dual Sensor: MitoCasp Assay in MDA-MB-231 breast cancer cells; type: cell-based, human
Text: (§1) Techniques to assay enzymatic and signaling processes involved in apoptosis have been developed as standard protocols. One example of an early step in apoptosis, is the release of cytochrome C from mitochondria and the activation of caspase-3. Induction of the caspases (a series of cytosolic proteases) is one of the most consistently observed features of apoptosis. Caspases are a family of proteolytic enzymes that transmit the apoptotic signal using a proteolytic cascade. […] Caspases 3 and 7 are effector caspases, central to the caspase cascade pathways. In particular, caspase-3 plays a central role in the process. When caspases are activated, they cleave target proteins; one of the most important of these is poly-(ADP-ribose) polymerase (PARP), which is a protein located in the nucleus. Therefore, assays detecting release of cytochrome C, detecting caspase-3 activity and detecting PARP degradation are effective determinants of apoptosis. The loss of mitochondrial membrane potential is known to occur during apoptosis. To analyze mitochondrial membrane potential, a cationic dye may be used which accumulates in the mitochondria of healthy cells. Collapse of the mitochondrial membrane potential during apoptosis prevents the dye from accumulating in the mitochondria resulting in a decrease in fluorescent intensity that can be detected with flow cytometry. Dual Sensor: MitoCasp™ (Cell Technology) used herein in the Examples is an assay that measures caspase 3/7 activity and cells with decreased mitochondrial membrane potential. In this assay, caspase 3/7 activity is detected using a cell permeable carboxyfluorescein labeled caspase inhibitor, which binds covalently to active caspases 3 and 7. Cells that contain bound inhibitor are detected by an increase in fluorescence when samples are analyzed by flow cytometry.
(§2) Following centrifugation at 500×g for 5 min, cell pellets were resuspended in PBS at 3.3×10^6 cells/mL. 300 μL cell suspension was mixed with 10 μL each of 30X Mitochondria Membrane Potential Dye and 30X Caspase 3/7 detection reagent. Following incubation for 60 min under normal growth conditions, cells were washed twice with 1× wash buffer and resuspended in 0.5 mL 1× wash buffer. Samples were analyzed by flow cytometry measuring the fluorescence emissions from 515 nm to 530 nm for caspase detection, and 574 nm to 600 nm for mitochondrial membrane potential detection.
The MDA-MB-231 cell line (ATCC #HTB-26) was derived from the pleural effusion of a patient with a breast adenocarcinoma (Cailleau et al., 1974). The cells were maintained in RPMI 1640 (Gibco) supplemented with 10% fetal bovine serum (Camera), 100 U/mL penicillin, 100 μg/mL streptomycin and 0.25 μg/mL amphotericin B. Cultures were maintained in medium at 37° C. with 5% CO2 and 100% relative humidity. […]

CRL-2522 cells [1] = assay: Dual Sensor: MitoCasp Assay in CRL-2522 normal fibroblast cells; type: cell-based, human; settings: for Cells with caspase 3/7 activity / Cells with decreased mitochondrial membrane potential / Effect on apoptosis (in words) / Cells with Caspase 3/7 activity and decreased mitochondrial membrane potential vs untreated (in words): CRL-2522 cells; for Apoptosis in non-cancerous cell line (summary in words): fibroblast cell line CRL-2522, summary of the Examples
Text: as §1, §2
CRL-2522 cells, acquired from ATCC, (American Type Culture Collection) are normal fibroblast cells that originated from human foreskin. CRL-2522 cells were maintained in RPMI 1640 medium (Gibco) supplemented with 10% fetal bovine serum (Cansera), 100 U/mL penicillin, 100 μg/mL streptomycin and 0.25 μg/mL amphotericin B. Cultures were maintained in medium at 37° C. with 5% CO2 and 100% relative humidity. […]

[2] = test system: PC-3, MDA-MB-231, WiDr, and HT-29 Cells; assay: Order of apoptosis potency across cancer cell lines; parameters: species or system human; settings: rank based on responses observed in PC-3, MDA-MB-231, WiDr, and HT-29 Cells; 1 = most active
CRL-2522 cells [3] = assay: Vybrant Apoptosis Assay Kit #2 in CRL-2522 cells; type: cell-based, human
Text: Another apoptotic assay is the Annexin-V detection of extracellular phosphatidlyserine (PS). Normally, phosphatidylserine is localized on the inner membrane of the plasmalemma. However, during the early stages of apoptosis, externalization of PS takes place. Annexin-V is a calcium binding protein which binds to PS and can be observed with annexin-V-FITC staining by flow cytometry (Martin, et al., 1995). Alexa Fluor® 488-labeled Annexin V, which has a high affinity for PS, is used to detect apoptotic cells by binding to PS on the outer surface of the cell. Propidium iodide staining is used concurrently to detect dead cells. When cells are analyzed by flow cytometry apoptotic cells show Annexin V staining, late apoptotic cells show PI and Annexin V staining, and dead cells show only PI staining. The Vybrant® Apoptosis Assay Kit #2 (Molecular Probes™) used herein in the Examples is an assay that measures Annexin-V positive cells.
CRL-2522 cells, acquired from ATCC, (American Type Culture Collection) are normal fibroblast cells that originated from human foreskin. CRL-2522 cells were maintained in RPMI 1640 medium (Gibco) supplemented with 10% fetal bovine serum (Cansera), 100 U/mL penicillin, 100 μg/mL streptomycin and 0.25 μg/mL amphotericin B. Cultures were maintained in medium at 37° C. with 5% CO2 and 100% relative humidity.
CRL-2522 cells were treated with PC1448 and assayed for apoptosis as described above for PC-3 cells.

[4] = 5.0 μM saponin, 36 hours (comparison of saponins)

## Segetoside H [PC1448]
MDA-MB-231 cells; 2.5 μM PC1448, 36 hr
  Cells with caspase 3/7 activity: 19.3%
  Cells with decreased mitochondrial membrane potential: 9.9%
MDA-MB-231 cells; 5.0 μM PC1448, 36 hr
  Cells with caspase 3/7 activity: 25.8%
  Cells with decreased mitochondrial membrane potential: 12.6%
MDA-MB-231 cells; [4]
  Cells with caspase 3/7 activity: 12.8%
  Cells with decreased mitochondrial membrane potential: 5.3%
MDA-MB-231 cells; 10.0 μM PC1448, 36 hr
  Cells with caspase 3/7 activity: 40.0%
  Cells with decreased mitochondrial membrane potential: 17.9%
MDA-MB-231 cells; 15.0 μM PC1448, 36 hr
  Cells with caspase 3/7 activity: 40.9%
  Cells with decreased mitochondrial membrane potential: 20.8%
MDA-MB-231 cells; 36 hours
  Concentration of greatest effect on apoptosis: above 10 μM
  Induction of apoptosis at concentrations as low as: 5.0 µM
CRL-2522 cells [1]; 2.5 μM PC1448, 37 hr
  Cells with caspase 3/7 activity: 1.7%
  Cells with decreased mitochondrial membrane potential: 5.6%
CRL-2522 cells [1]; 5.0 μM PC1448, 37 hr
  Cells with caspase 3/7 activity: 4.0%
  Cells with decreased mitochondrial membrane potential: 5.0%
CRL-2522 cells [1]; 10.0 μM PC1448, 37 hr
  Cells with caspase 3/7 activity: 21.9%
  Cells with decreased mitochondrial membrane potential: 4.6%
CRL-2522 cells [1]; 14 μM PC1448, 10-30 hr
  Effect on apoptosis (in words): no significant effect on apoptosis
CRL-2522 cells [1]; 14 μM PC1448, 10 hr
  Cells with caspase 3/7 activity: 3.7%
  Cells with decreased mitochondrial membrane potential: 1.4%
CRL-2522 cells [1]; 14 μM PC1448, 20 hr
  Cells with caspase 3/7 activity: 5.5%
  Cells with decreased mitochondrial membrane potential: 1.4%
CRL-2522 cells [1]; 14 μM PC1448, 30 hr
  Cells with caspase 3/7 activity: 32.8%
  Cells with decreased mitochondrial membrane potential: 0.8%
CRL-2522 cells [1]; 15.0 μM PC1448, 37 hr
  Cells with caspase 3/7 activity: 9.4%
  Cells with decreased mitochondrial membrane potential: 18.5%
CRL-2522 cells [1]; PC1448 15.0-2.5 μM, 37 hours
  Cells with Caspase 3/7 activity and decreased mitochondrial membrane potential vs untreated (in words): variable increase
CRL-2522 cells [1]
  Apoptosis in non-cancerous cell line (summary in words): no or little apoptosis
[2]
  Order of Apoptosis Potency: 7
CRL-2522 cells [3]; 14 μM PC1448, 10-40 hr
  Change in number of cells showing Annexin V staining (in words): No meaningful changes
CRL-2522 cells [3]; 14 μM PC1448, 10 hr
  Annexin-V positive cells: 17.2%
CRL-2522 cells [3]; 14 μM PC1448, 20 hr
  Annexin-V positive cells: 9.3%
CRL-2522 cells [3]; 14 μM PC1448, 40 hr
  Annexin-V positive cells: 18.2%

## Segetoside I [PC1464]
MDA-MB-231 cells; 1.25 μM PC1464, 35 hr
  Cells with caspase 3/7 activity: 16.7%
  Cells with decreased mitochondrial membrane potential: 15.6%
MDA-MB-231 cells; 2.5 μM PC1464, 35 hr
  Cells with caspase 3/7 activity: 32.4%
  Cells with decreased mitochondrial membrane potential: 21.2%
MDA-MB-231 cells; 3.5 μM PC1464, 12 hr
  Cells with caspase 3/7 activity: 20.0%
  Cells with decreased mitochondrial membrane potential: 19.9%
MDA-MB-231 cells; 3.5 μM PC1464, 24 hr
  Cells with caspase 3/7 activity: 27.5%
  Cells with decreased mitochondrial membrane potential: 51.5%
MDA-MB-231 cells; 3.5 μM PC1464, 36 hours
  Increase in number of cells with caspase 3/7 activity: two fold
  Increase in number of cells with reduced mitochondrial membrane potential: eight fold
MDA-MB-231 cells; 3.5 μM PC1464, 36 hr
  Cells with caspase 3/7 activity: 29.1%
  Cells with decreased mitochondrial membrane potential: 52.0%
MDA-MB-231 cells; 5.0 μM PC1464, 35 hr
  Cells with caspase 3/7 activity: 53.0%
  Cells with decreased mitochondrial membrane potential: 32.8%
MDA-MB-231 cells; [4]
  Cells with caspase 3/7 activity: 39.9%
  Cells with decreased mitochondrial membrane potential: 13.7%
MDA-MB-231 cells; 10.0 μM PC1464, 35 hr
  Cells with caspase 3/7 activity: 55.7%
  Cells with decreased mitochondrial membrane potential: 39.6%
MDA-MB-231 cells; 35 hours
  Concentration of greatest effect on apoptosis: above 5 μM
  Induction of apoptosis at concentrations as low as: 2.5 µM
CRL-2522 cells [1]; 1.25 μM PC1464, 36 hr
  Cells with caspase 3/7 activity: 1.7%
  Cells with decreased mitochondrial membrane potential: 1.7%
CRL-2522 cells [1]; 2.5 μM PC1464, 36 hr
  Cells with caspase 3/7 activity: 3.2%
  Cells with decreased mitochondrial membrane potential: 1.4%
CRL-2522 cells [1]; 5.0 μM PC1464, 36 hr
  Cells with caspase 3/7 activity: 14.4%
  Cells with decreased mitochondrial membrane potential: 1.3%
CRL-2522 cells [1]; 7 μM PC1464, 10-30 hr
  Effect on apoptosis (in words): minimal effect
CRL-2522 cells [1]; 7 μM PC1464, 10 hr
  Cells with caspase 3/7 activity: 3.2%
  Cells with decreased mitochondrial membrane potential: 4.4%
CRL-2522 cells [1]; 7 μM PC1464, 20 hr
  Cells with caspase 3/7 activity: 11.7%
  Cells with decreased mitochondrial membrane potential: 4.4%
CRL-2522 cells [1]; 7 μM PC1464, 30 hr
  Cells with caspase 3/7 activity: 16.9%
  Cells with decreased mitochondrial membrane potential: 5.1%
CRL-2522 cells [1]; 10.0 μM PC1464, 36 hr
  Cells with caspase 3/7 activity: 19.9%
  Cells with decreased mitochondrial membrane potential: 2.2%
CRL-2522 cells [1]; PC1464 10.0-1.25 μM, 36 hours
  Cells with Caspase 3/7 activity and decreased mitochondrial membrane potential vs untreated (in words): slight increase
CRL-2522 cells [1]
  Apoptosis in non-cancerous cell line (summary in words): no or little apoptosis
[2]
  Order of Apoptosis Potency: 4
CRL-2522 cells [3]; 7 μM PC1464, 10-30 hr
  Effect on Annexin V positive cells (in words): little effect
CRL-2522 cells [3]; 7 μM PC1464, 10 hr
  Annexin-V positive cells: 6.0%
CRL-2522 cells [3]; 7 μM PC1464, 20 hr
  Annexin-V positive cells: 8.4%
CRL-2522 cells [3]; 7 μM PC1464, 30 hr
  Annexin-V positive cells: 10.2%
